# According to patent US9115101B2 (Genentech, Inc., priority 2012, dated 2015):
# Molecular target: T1, RORc ligand binding domain (Homo sapiens, UniProt P51449)
# T1 construct: host or cells: E. coli
# T1 sequence (P51449 269-508 limits assumed): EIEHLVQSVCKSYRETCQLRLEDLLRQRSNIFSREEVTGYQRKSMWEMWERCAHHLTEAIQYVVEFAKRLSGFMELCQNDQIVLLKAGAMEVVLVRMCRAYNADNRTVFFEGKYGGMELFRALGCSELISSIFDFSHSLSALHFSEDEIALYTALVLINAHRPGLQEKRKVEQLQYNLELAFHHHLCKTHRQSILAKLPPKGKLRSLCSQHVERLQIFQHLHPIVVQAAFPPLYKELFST
# Assay: In Vitro RORc Ligand Binding Assay (25-[3H]hydroxycholesterol radioligand filtration)
# Settings: In Vitro RORc Ligand Binding Assay; Table 4; read-out: RORc IC50
row,IC50,SMILES
1,240 nM,"CC(=O)N1CCN(c2ccc(CN3[C@@H](C)CCC(c4ccccc4)S3(=O)=O)c(F)c2)C[C@H]1C#N (stereo partly drawn) [Example 385, (S)-1-Acetyl-4-[3-fluoro-4-((3S)-methyl-1,1-dioxo-6-phenyl-[1,2]thiazinan-2-ylmethyl)-phenyl]-piperazine-2-carbonitrile]"
2,1490 nM,"C[C@H]1CCC(c2ccccc2)S(=O)(=O)N1Cc1ccc(C(=O)NC2CCS(=O)(=O)CC2)cc1 (stereo partly drawn) [Example 386, N-(1,1-Dioxo-hexahydro-1-thiopyran-4-yl)-4-((3S)-methyl-1,1-dioxo-6-phenyl-[1,2]thiazinan-2-ylmethyl)-benzamide]"
3,607 nM,"C[C@H]1CCC(c2ccccc2)S(=O)(=O)N1Cc1ccc(C(=O)NC2CN(S(C)(=O)=O)C2)cc1 (stereo partly drawn) [Example 387, N-(1-Methanesulfonyl-azetidin-3-yl)-4-((3S)-methyl-1,1-dioxo-6-phenyl-[1,2]thiazinan-2-ylmethyl)-benzamide]"
4,3520 nM,"C[C@H]1CCC(c2ccccc2)S(=O)(=O)N1Cc1ccc(C(=O)N[C@@H]2CCN(S(C)(=O)=O)C2)cc1 (stereo partly drawn) [Example 388, N-((R)-1-Methanesulfonyl-pyrrolidin-3-yl)-4-((3S)-methyl-1,1-dioxo-6-phenyl-[1,2]thiazinan-2-ylmethyl)-benzamide]"
5,3220 nM,"C[C@H]1CCC(c2ccccc2)S(=O)(=O)N1Cc1ccc(C(=O)NC2CCS(=O)(=O)C2)cc1 (stereo partly drawn) [Example 389, N-(1,1-Dioxo-tetrahydro-6-thiophen-3-yl)-4-((3S)-methyl-1,1-dioxo-6-phenyl-[1,2]thiazinan-2-ylmethyl)-benzamide]"
6,5460 nM,"C[C@H]1CCC(c2ccccc2)S(=O)(=O)N1Cc1ccc(C(=O)NC2CN(C(N)=O)C2)cc1 (stereo partly drawn) [Example 390, 3-[4-((3S)-Methyl-1,1-dioxo-6-phenyl-[1,2]thiazinan-2-ylmethyl)-benzoylamino]-azetidine-1-carboxylic acid amide]"
7,3430 nM,"C[C@H]1CCC(c2ccccc2)S(=O)(=O)N1Cc1ccc(C(=O)N[C@@H]2CCN(C(N)=O)C2)cc1 (stereo partly drawn) [Example 391, (R)-3-[4-((3S)-Methyl-1,1-dioxo-6-phenyl-[1,2]thiazinan-2-ylmethyl)-benzoylamino]-pyrrolidine-1-carboxylic acid amide]"
8,13 nM,"COC(=O)[C@@H]1CN(C(C)=O)CCN1c1ccc(CN2[C@@H](C)CCC(c3ccccc3)S2(=O)=O)c(F)c1 (stereo partly drawn) [Example 392, (S)-4-Acetyl-1-[3-fluoro-4-((3S)-methyl-1,1-dioxo-6-phenyl-[1,2]thiazinan-2-ylmethyl)-phenyl]-piperazine-2-carboxylic acid methyl ester]"
9,697 nM,"COCCNC(=O)[C@@H]1CN(c2ccc(CN3[C@@H](C)CCC(c4ccccc4)S3(=O)=O)c(F)c2)CCN1C(C)=O (stereo partly drawn) [Example 393, (S)-1-Acetyl-4-[3-fluoro-4-((3S)-methyl-1,1-dioxo-6-phenyl-[1,2]thiazinan-2-ylmethyl)-phenyl]-piperazine-2-carboxylic acid (2-methoxy-ethyl)-amide]"
10,3180 nM,"CC(=O)N1CCN(c2ccc(CN3[C@@H](C)CCC(c4ccccc4)S3(=O)=O)c(F)c2)C[C@H]1C(=O)NC(C)C (stereo partly drawn) [Example 394, (S)-1-Acetyl-4-[3-fluoro-4-((3S)-methyl-1,1-dioxo-6-phenyl-[1,2]thiazinan-2-ylmethyl)-phenyl]-piperazine-2-carboxylic acid isopropylamide]"

# More lines, now with the values behind:
row,SMILES,IC50
1,"CC(=O)N1CC2(C1)CN(C(=O)c1ccc(CN3[C@@H](C)CCC(c4ccccc4)S3(=O)=O)cc1)C2 (stereo partly drawn) [Example 366, 1-{6-[4-((3S)-Methyl-1,1-dioxo-6-phenyl-[1,2]thiazinan-2-ylmethyl)-benzoyl]-2,6-diaza-spiro[3.3]hept-2-yl}-ethanone]",5280 nM
2,"CC(=O)N1CC2CC2(NC(=O)c2ccc(CN3[C@@H](C)CCC(c4ccccc4)S3(=O)=O)cc2)C1 (stereo partly drawn) [Example 367, N-(3-Acetyl-3-aza-bicyclo[3.1.0]hex-1-yl)-4-((3S)-methyl-1,1-dioxo-6-phenyl-[1,2]thiazinan-2-ylmethyl)-benzamide]",2270 nM
3,"CC1CN(C(=O)c2ccc(CN3[C@@H](C)CCC(c4ccccc4)S3(=O)=O)cc2)CC(=O)N1 (stereo partly drawn) [Example 368, 6-Methyl-4-[4-((3S)-methyl-1,1-dioxo-6-phenyl-[1,2]thiazinan-2-ylmethyl)-benzoyl]-piperazin-2-one]",2360 nM
4,"C[C@H]1CCC(c2ccccc2)S(=O)(=O)N1Cc1ccc(C(=O)NC2(C#N)CCC2)cc1 (stereo partly drawn) [Example 369, N-(1-Cyano-cyclobutyl)-4-((3S)-methyl-1,1-dioxo-6-phenyl-[1,2]thiazinan-2-ylmethyl)-benzamide]",3480 nM
5,"C[C@H]1CCC(c2ccccc2)S(=O)(=O)N1Cc1ccc(C(=O)N2CC3(CCOCC3)C2)cc1 (stereo partly drawn) [Example 370, [4-((3S)-Methyl-1,1-dioxo-6-phenyl-[1,2]thiazinan-2-ylmethyl)-phenyl]-(7-oxa-2-aza-spiro[3.5]non-2-yl)-methanone]",1060 nM
6,"C[C@H]1CCC(c2ccccc2)S(=O)(=O)N1Cc1ccc(C(=O)NCCC2CCCN(S(C)(=O)=O)C2)cc1 (stereo partly drawn) [Example 371, N-[2-(1-Methanesulfonyl-piperidin-3-yl)-ethyl]-4-((3S)-methyl-1,1-dioxo-6-phenyl-[1,2]thiazinan-2-ylmethyl)-benzamide]",3630 nM
7,"C[C@H]1CCC(c2ccccc2)S(=O)(=O)N1Cc1ccc(C(=O)N2CC3(CCOC3)C2)cc1 (stereo partly drawn) [Example 372, [4-((3S)-Methyl-1,1-dioxo-6-phenyl-[1,2]thiazinan-2-ylmethyl)-phenyl]-(6-oxa-2-aza-spiro[3.4]oct-2-yl)-methanone]",3040 nM
8,"C[C@H]1CCC(c2ccccc2)S(=O)(=O)N1Cc1ccc(C(=O)N2CCn3nccc3C2)cc1 (stereo partly drawn) [Example 373, (6,7-Dihydro-4H-pyrazolo[1,5-a]pyrazin-5-yl)-[4-((3S)-methyl-1,1-dioxo-6-phenyl-[1,2]thiazinan-2-ylmethyl)-phenyl]-methanone]",4360 nM
9,"Cc1ncc2n1CCN(c1ccc(CN3[C@@H](C)CCC(c4ccccc4)S3(=O)=O)c(F)c1)C2 (stereo partly drawn) [Example 374, 7-[3-Fluoro-4-((3S)-methyl-1,1-dioxo-6-phenyl-[1,2]thiazinan-2-ylmethyl)-phenyl]-3-methyl-5,6,7,8-tetrahydro-imidazo[1,5-a]pyrazine]",166 nM
10,"CC(=O)N1CCN(c2ccc(CN3[C@@H](C)CCC(c4ccccc4)S3(=O)=O)c(F)c2)C[C@@H]1C(N)=O (stereo partly drawn) [Example 375, (R)-1-Acetyl-4-[3-fluoro-4-((3S)-methyl-1,1-dioxo-6-phenyl-[1,2]thiazinan-2-ylmethyl)-phenyl]-piperazine-2-carboxylic acid amide]",156 nM
11,"CC(=O)N1CCN(c2ccc(CN3[C@@H](C)CCC(c4ccccc4)S3(=O)=O)c(F)c2)C[C@@H]1C#N (stereo partly drawn) [Example 376, (R)-1-Acetyl-4-[3-fluoro-4-((3S)-methyl-1,1-dioxo-6-phenyl-[1,2]thiazinan-2-ylmethyl)-phenyl]-piperazine-2-carbonitrile]",78 nM
12,"CC(=O)N1CCN(c2ccc(CN3[C@@H](C)CCC(c4ccccc4)S3(=O)=O)c(F)c2)C[C@H]1C(=O)O (stereo partly drawn) [Example 377, (S)-1-Acetyl-4-[3-fluoro-4-((3S)-methyl-1,1-dioxo-6-phenyl-[1,2]thiazinan-2-ylmethyl)-phenyl]-piperazine-2-carboxylic acid]",1360 nM
13,"CC(=O)N1CCN(c2ccc(CN3[C@@H](C)CCC(c4ccccc4)S3(=O)=O)c(F)c2)C[C@H]1CO (stereo partly drawn) [Example 378, 1-{(S)-4-[3-Fluoro-4-((3S)-methyl-1,1-dioxo-6-phenyl-[1,2]thiazinan-2-ylmethyl)-phenyl]-2-hydroxymethyl-piperazin-1-yl}-ethanone]",61 nM
14,"CC(=O)N1CCN(c2ccc(CN3[C@@H](C)CCC(c4ccccc4)S3(=O)=O)c(F)c2)C[C@H]1C(=O)N(C)C (stereo partly drawn) [Example 379, (S)-1-Acetyl-4-[3-fluoro-4-((3S)-methyl-1,1-dioxo-6-phenyl-[1,2]thiazinan-2-ylmethyl)-phenyl]-piperazine-2-carboxylic acid dimethylamide]",882 nM
15,"CNC(=O)[C@@H]1CN(c2ccc(CN3[C@@H](C)CCC(c4ccccc4)S3(=O)=O)c(F)c2)CCN1C(C)=O (stereo partly drawn) [Example 380, (S)-1-Acetyl-4-[3-fluoro-4-((3S)-methyl-1,1-dioxo-6-phenyl-[1,2]thiazinan-2-ylmethyl)-phenyl]-piperazine-2-carboxylic acid methylamide]",138 nM
16,"CC(=O)N1CCN(c2ccc(CN3[C@@H](C)CCC(c4ccccc4)S3(=O)=O)c(F)c2)C[C@H]1C(N)=O (stereo partly drawn) [Example 381, (S)-1-Acetyl-4-[3-fluoro-4-((3S)-methyl-1,1-dioxo-6-phenyl-[1,2]thiazinan-2-ylmethyl)-phenyl]-piperazine-2-carboxylic acid amide]",522 nM
17,"COC(=O)[C@@H]1CN(c2ccc(CN3[C@@H](C)CCC(c4ccccc4)S3(=O)=O)c(F)c2)CCN1C(C)=O (stereo partly drawn) [Example 382, (S)-1-Acetyl-4-[3-fluoro-4-((3S)-methyl-1,1-dioxo-6-phenyl-[1,2]thiazinan-2-ylmethyl)-phenyl]-piperazine-2-carboxylic acid methyl ester]",34 nM
18,"CNC(=O)[C@H]1CN(c2ccc(CN3[C@@H](C)CCC(c4ccccc4)S3(=O)=O)c(F)c2)CCN1C(C)=O (stereo partly drawn) [Example 383, (R)-1-Acetyl-4-[3-fluoro-4-((3S)-methyl-1,1-dioxo-6-phenyl-[1,2]thiazinan-2-ylmethyl)-phenyl]-piperazine-2-carboxylic acid methylamide]",705 nM
19,"CC(=O)N1CCN(c2ccc(CN3[C@@H](C)CCC(c4ccccc4)S3(=O)=O)c(F)c2)C[C@@H]1C(=O)N(C)C (stereo partly drawn) [Example 384, (R)-1-Acetyl-4-[3-fluoro-4-((3S)-methyl-1,1-dioxo-6-phenyl-[1,2]thiazinan-2-ylmethyl)-phenyl]-piperazine-2-carboxylic acid dimethylamide]",1720 nM
